From ChEMBL document CHEMBL5036347, “Design of the naphthyl-diarylpyrimidines as potent non-nucleoside reverse transcriptase inhibitors (NNRTIs) via structure-based extension into the entrance channel” (Eur J Med Chem, 2021)

System: Human immunodeficiency virus 1
Experiment: Anti-HIV activity against HIV-1 IIIB infected in human MT4 cells assessed as reduction in virus-induced cytopathic effect incubated for 5 days by MTT assay
Format: functional, organism-based
Conditions: Human immunodeficiency virus 1, IIIB, MT4, 120 h

SMILES	EC50
COc1cc2cc(C#N)ccc2c(OC)c1Oc1cc(NC(C)(C)C)nc(Nc2ccc(C#N)cc2)n1	0.052 µM
COc1cc2cc(C#N)ccc2c(OC)c1Oc1cc(NCC(C)C)nc(Nc2ccc(C#N)cc2)n1	0.035 µM
O=C1Nc2ccc(Cl)cc2[C@@](C#CC2CC2)(C(F)(F)F)O1 [EFAVIRENZ]	0.0043 µM
Nc1ccn([C@@H]2CS[C@H](CO)O2)c(=O)n1 [LAMIVUDINE]	5.76 µM

System: Human immunodeficiency virus 2
Experiment: Anti-HIV activity against HIV2 ROD infected in human MT4 cells assessed as reduction in virus-induced cytopathic effect incubated for 5 days by MTT assay
Format: functional, organism-based
Conditions: Human immunodeficiency virus 2, ROD, MT4, 120 h

SMILES	EC50
COc1cc2cc(C#N)ccc2c(OC)c1Oc1cc(NC(C)(C)C)nc(Nc2ccc(C#N)cc2)n1	> 1000 µM
COc1cc2cc(C#N)ccc2c(OC)c1Oc1cc(NCC(C)C)nc(Nc2ccc(C#N)cc2)n1	> 1000 µM

System: not listed separately
Experiment: Cytotoxicity against human MT4 cells assessed as reduction in cell viability incubated for 5 days by MTT assay
Format: cell-based
Conditions: human, MT4 cells; time 5 day

SMILES	CC50 at 120 h
COc1cc2cc(C#N)ccc2c(OC)c1Oc1cc(NC(C)(C)C)nc(Nc2ccc(C#N)cc2)n1	> 125 µM
COc1cc2cc(C#N)ccc2c(OC)c1Oc1cc(NCC(C)C)nc(Nc2ccc(C#N)cc2)n1	> 125 µM
Nc1ccn([C@@H]2CS[C@H](CO)O2)c(=O)n1 [LAMIVUDINE]	> 20 µM

System: Human immunodeficiency virus 1
Experiment: Antiviral activity against HIV1 harboring reverse transcriptase L100I mutant infected in human MT4 cells assessed as protection against virus-induced cytopathic effect incubated for 5 days by MTT assay
Format: functional, organism-based
Conditions: Human immunodeficiency virus 1, MT4, 120 h

SMILES	EC50
COc1cc2cc(C#N)ccc2c(OC)c1Oc1cc(NC(C)(C)C)nc(Nc2ccc(C#N)cc2)n1	1.89 µM
COc1cc2cc(C#N)ccc2c(OC)c1Oc1cc(NCC(C)C)nc(Nc2ccc(C#N)cc2)n1	127 µM
O=C1Nc2ccc(Cl)cc2[C@@](C#CC2CC2)(C(F)(F)F)O1 [EFAVIRENZ]	0.095 µM
Nc1ccn([C@@H]2CS[C@H](CO)O2)c(=O)n1 [LAMIVUDINE]	2.13 µM

System: Human immunodeficiency virus 1
Experiment: Antiviral activity against HIV1 harboring reverse transcriptase K103N mutant infected in human MT4 cells assessed as protection against virus-induced cytopathic effect incubated for 5 days by MTT assay
Format: functional, organism-based
Conditions: Human immunodeficiency virus 1, MT4, 120 h

SMILES	EC50
COc1cc2cc(C#N)ccc2c(OC)c1Oc1cc(NC(C)(C)C)nc(Nc2ccc(C#N)cc2)n1	0.075 µM
COc1cc2cc(C#N)ccc2c(OC)c1Oc1cc(NCC(C)C)nc(Nc2ccc(C#N)cc2)n1	0.11 µM
O=C1Nc2ccc(Cl)cc2[C@@](C#CC2CC2)(C(F)(F)F)O1 [EFAVIRENZ]	0.14 µM

System: Human immunodeficiency virus 1
Experiment: Antiviral activity against HIV1 harboring reverse transcriptase Y181C mutant infected in human MT4 cells assessed as protection against virus-induced cytopathic effect incubated for 5 days by MTT assay
Format: functional, organism-based
Conditions: Human immunodeficiency virus 1, MT4, 120 h

SMILES	EC50
COc1cc2cc(C#N)ccc2c(OC)c1Oc1cc(NC(C)(C)C)nc(Nc2ccc(C#N)cc2)n1	0.65 µM
COc1cc2cc(C#N)ccc2c(OC)c1Oc1cc(NCC(C)C)nc(Nc2ccc(C#N)cc2)n1	43.6 µM
O=C1Nc2ccc(Cl)cc2[C@@](C#CC2CC2)(C(F)(F)F)O1 [EFAVIRENZ]	0.0074 µM
Nc1ccn([C@@H]2CS[C@H](CO)O2)c(=O)n1 [LAMIVUDINE]	4.57 µM

System: Human immunodeficiency virus 1
Experiment: Antiviral activity against HIV1 harboring reverse transcriptase Y188L mutant infected in human MT4 cells assessed as protection against virus-induced cytopathic effect incubated for 5 days by MTT assay
Format: functional, organism-based
Conditions: Human immunodeficiency virus 1, MT4, 120 h

SMILES	EC50
COc1cc2cc(C#N)ccc2c(OC)c1Oc1cc(NC(C)(C)C)nc(Nc2ccc(C#N)cc2)n1	6.51 µM
COc1cc2cc(C#N)ccc2c(OC)c1Oc1cc(NCC(C)C)nc(Nc2ccc(C#N)cc2)n1	13.3 µM
O=C1Nc2ccc(Cl)cc2[C@@](C#CC2CC2)(C(F)(F)F)O1 [EFAVIRENZ]	0.0073 µM

System: Human immunodeficiency virus 1
Experiment: Antiviral activity against HIV1 harboring reverse transcriptase E138K mutant infected in human MT4 cells assessed as protection against virus-induced cytopathic effect incubated for 5 days by MTT assay
Format: functional, organism-based
Conditions: Human immunodeficiency virus 1, MT4, 120 h

SMILES	EC50
COc1cc2cc(C#N)ccc2c(OC)c1Oc1cc(NC(C)(C)C)nc(Nc2ccc(C#N)cc2)n1	0.18 µM
COc1cc2cc(C#N)ccc2c(OC)c1Oc1cc(NCC(C)C)nc(Nc2ccc(C#N)cc2)n1	0.13 µM
O=C1Nc2ccc(Cl)cc2[C@@](C#CC2CC2)(C(F)(F)F)O1 [EFAVIRENZ]	0.0053 µM
Nc1ccn([C@@H]2CS[C@H](CO)O2)c(=O)n1 [LAMIVUDINE]	8.49 µM

System: Human immunodeficiency virus 1
Experiment: Antiviral activity against HIV1 harboring reverse transcriptase F227L/V106A mutant infected in human MT4 cells assessed as protection against virus-induced cytopathic effect incubated for 5 days by MTT assay
Format: functional, organism-based
Conditions: Human immunodeficiency virus 1, MT4, 120 h

SMILES	EC50
COc1cc2cc(C#N)ccc2c(OC)c1Oc1cc(NC(C)(C)C)nc(Nc2ccc(C#N)cc2)n1	> 1000 µM
COc1cc2cc(C#N)ccc2c(OC)c1Oc1cc(NCC(C)C)nc(Nc2ccc(C#N)cc2)n1	> 1000 µM
O=C1Nc2ccc(Cl)cc2[C@@](C#CC2CC2)(C(F)(F)F)O1 [EFAVIRENZ]	0.33 µM
Nc1ccn([C@@H]2CS[C@H](CO)O2)c(=O)n1 [LAMIVUDINE]	3.07 µM

System: not listed separately
Experiment: Resistance fold, ratio of EC50 for HIV1 harboring reverse transcriptase Y181C mutant […] to EC50 for wild type HIV1 […]
Format: functional
Conditions: not given

SMILES	Ratio EC50
COc1cc2cc(C#N)ccc2c(OC)c1Oc1cc(NC(C)(C)C)nc(Nc2ccc(C#N)cc2)n1	12
COc1cc2cc(C#N)ccc2c(OC)c1Oc1cc(NCC(C)C)nc(Nc2ccc(C#N)cc2)n1	1253
Nc1ccn([C@@H]2CS[C@H](CO)O2)c(=O)n1 [LAMIVUDINE]	1

System: not listed separately
Experiment: Resistance fold, ratio of EC50 for HIV1 harboring reverse transcriptase L100I mutant […] to EC50 for wild type HIV1 […]
Format: functional
Conditions: not given

SMILES	Ratio EC50
COc1cc2cc(C#N)ccc2c(OC)c1Oc1cc(NC(C)(C)C)nc(Nc2ccc(C#N)cc2)n1	36
COc1cc2cc(C#N)ccc2c(OC)c1Oc1cc(NCC(C)C)nc(Nc2ccc(C#N)cc2)n1	3646
Nc1ccn([C@@H]2CS[C@H](CO)O2)c(=O)n1 [LAMIVUDINE]	0.4

System: not listed separately
Experiment: Resistance fold, ratio of EC50 for HIV1 harboring reverse transcriptase K103N mutant […] to EC50 for wild type HIV1 […]
Format: functional
Conditions: not given

SMILES	Ratio EC50
COc1cc2cc(C#N)ccc2c(OC)c1Oc1cc(NC(C)(C)C)nc(Nc2ccc(C#N)cc2)n1	1
COc1cc2cc(C#N)ccc2c(OC)c1Oc1cc(NCC(C)C)nc(Nc2ccc(C#N)cc2)n1	3
Nc1ccn([C@@H]2CS[C@H](CO)O2)c(=O)n1 [LAMIVUDINE]	1

System: Human immunodeficiency virus 1
Experiment: Antiviral activity against HIV1 harboring reverse transcriptase K103N/Y181C double mutant infected in human MT4 cells assessed as protection against virus-induced cytopathic effect incubated for 5 days by MTT assay
Format: functional, organism-based
Conditions: Human immunodeficiency virus 1, MT4, 120 h

SMILES	EC50
COc1cc2cc(C#N)ccc2c(OC)c1Oc1cc(NC(C)(C)C)nc(Nc2ccc(C#N)cc2)n1	28.5 µM
COc1cc2cc(C#N)ccc2c(OC)c1Oc1cc(NCC(C)C)nc(Nc2ccc(C#N)cc2)n1	> 1000 µM
O=C1Nc2ccc(Cl)cc2[C@@](C#CC2CC2)(C(F)(F)F)O1 [EFAVIRENZ]	0.22 µM
Nc1ccn([C@@H]2CS[C@H](CO)O2)c(=O)n1 [LAMIVUDINE]	6.01 µM

System: not listed separately
Experiment: Selectivity index, ratio of CC50 for cytotoxicity against human MT4 cells to EC50 of Anti-HIV activity against HIV-1 IIIB infected in human MT4
Format: toxicity, cell-based
Conditions: read-out: Selectivity Index

SMILES	selectivity ratio
COc1cc2cc(C#N)ccc2c(OC)c1Oc1cc(NC(C)(C)C)nc(Nc2ccc(C#N)cc2)n1	> 4830
COc1cc2cc(C#N)ccc2c(OC)c1Oc1cc(NCC(C)C)nc(Nc2ccc(C#N)cc2)n1	> 7250
Nc1ccn([C@@H]2CS[C@H](CO)O2)c(=O)n1 [LAMIVUDINE]	> 15

System: not listed separately
Experiment: Resistance fold, ratio of EC50 for HIV1 harboring reverse transcriptase Y188L mutant […] to EC50 for wild type HIV1 […]
Format: functional
Conditions: not given

SMILES	Ratio EC50
COc1cc2cc(C#N)ccc2c(OC)c1Oc1cc(NC(C)(C)C)nc(Nc2ccc(C#N)cc2)n1	125
COc1cc2cc(C#N)ccc2c(OC)c1Oc1cc(NCC(C)C)nc(Nc2ccc(C#N)cc2)n1	383
Nc1ccn([C@@H]2CS[C@H](CO)O2)c(=O)n1 [LAMIVUDINE]	0

System: not listed separately
Experiment: Resistance fold, ratio of EC50 for HIV1 harboring reverse transcriptase E138K mutant […] to EC50 for wild type HIV1 […]
Format: functional
Conditions: not given

SMILES	Ratio EC50
COc1cc2cc(C#N)ccc2c(OC)c1Oc1cc(NC(C)(C)C)nc(Nc2ccc(C#N)cc2)n1	4
COc1cc2cc(C#N)ccc2c(OC)c1Oc1cc(NCC(C)C)nc(Nc2ccc(C#N)cc2)n1	4
Nc1ccn([C@@H]2CS[C@H](CO)O2)c(=O)n1 [LAMIVUDINE]	1

System: not listed separately
Experiment: Resistance fold, ratio of EC50 for HIV1 harboring reverse transcriptase F227L/V106A double mutant […] to EC50 for wild type HIV1 […]
Format: functional
Conditions: not given

SMILES	Ratio EC50
COc1cc2cc(C#N)ccc2c(OC)c1Oc1cc(NC(C)(C)C)nc(Nc2ccc(C#N)cc2)n1	>19231
COc1cc2cc(C#N)ccc2c(OC)c1Oc1cc(NCC(C)C)nc(Nc2ccc(C#N)cc2)n1	>28736
Nc1ccn([C@@H]2CS[C@H](CO)O2)c(=O)n1 [LAMIVUDINE]	1

System: not listed separately
Experiment: Resistance fold, ratio of EC50 for HIV1 harboring reverse transcriptase K103N/Y181C double mutant […] to EC50 for wild type HIV1 […]
Format: functional
Conditions: not given

SMILES	Ratio EC50
COc1cc2cc(C#N)ccc2c(OC)c1Oc1cc(NC(C)(C)C)nc(Nc2ccc(C#N)cc2)n1	548
COc1cc2cc(C#N)ccc2c(OC)c1Oc1cc(NCC(C)C)nc(Nc2ccc(C#N)cc2)n1	>28736
Nc1ccn([C@@H]2CS[C@H](CO)O2)c(=O)n1 [LAMIVUDINE]	1

Biological target: Human immunodeficiency virus type 1 reverse transcriptase (Human immunodeficiency virus 1, UniProt Q72547)
Experiment: Inhibition of wild type HIV1 reverse transcriptase using oligo(dT)16 as primer measured after 40 mins by picogreen-dye based spectrofluorimetric analysis
Conditions: not given

SMILES	IC50
COc1cc2cc(C#N)ccc2c(OC)c1Oc1cc(NC(C)(C)C)nc(Nc2ccc(C#N)cc2)n1	0.31 µM
COc1cc2cc(C#N)ccc2c(OC)c1Oc1cc(NCC(C)C)nc(Nc2ccc(C#N)cc2)n1	0.25 µM
